Source: US8148531B2 (Chroma Therapeutics Ltd., priority 2005, dated 2012)
Structures can show the parent of a compound that is named as a salt.

Assays:
Assay type in all cases: cell-based
U937 cell line = experiment: Cell inhibition assay (SRB cell viability), U937; settings: Homo sapiens, U-937, IC50 range class, 72 h, read-out: Inhibitor Activity vs U937 cell line
Protocol: (§1) The corresponding cancer cell lines (U937, HCT 116 and HUT) growing in log phase were harvested and seeded at 1000 cells/well (200 ul final volume) into 96-well tissue culture plates. Following 24 h of cell growth cells were treated with compounds (final concentration of 20 uM). Plates were then re-incubated for a further 72 h before a sulphorhodamine B (SRB) cell viability assay was conducted according to Skehan 1990 J Natl Canc Inst 82, 1107-1112.
(§2) Data were expressed as a percentage inhibition of the control, measured in the absence of inhibitor, as follows: — % inhibition=100−((S^i/S^o)×100) where S^i is the signal in the presence of inhibitor and S^o is the signal in the presence of DMSO.
(§3) IC50 values were determined by non-linear regression analysis, after fitting the results of eight data points to the equation for sigmoidal dose response with variable slope (% activity against log concentration of compound), using Graphpad Prism software.

HCT 116 cell line = experiment: Cell inhibition assay (SRB cell viability), HCT 116; settings: Homo sapiens, IC50 range class, 72 h, read-out: Inhibitor Activity vs HCT 116 cell line
Protocol: as §1, §2, §3

HUT cell line = experiment: Cell inhibition assay (SRB cell viability), HUT; settings: IC50 range class, 72 h, read-out: Inhibitor Activity vs HUT cell line
Protocol: as §1, §2, §3

Structure (SMILES) | IC50 (U937 cell line) [µM] | IC50 (HCT 116 cell line) [µM] | IC50 (HUT cell line) [µM]
COc1ccc(NC(=O)Cc2ccc(Oc3ccnc4cc(OCC[C@H](N)C(=O)OC5CCCC5)c(OC)cc34)cc2)cc1 [Example 90, (S)-2-Amino-4-(6-methoxy-4-{4-[(4-methoxy-phenylcarbamoyl)-methyl]-phenoxy}-quinolin-7-yloxy)-butyric acid cyclopentyl ester] | < 1 | < 1 | < 1
COc1cc2c(Oc3ccc(-c4noc(-c5ccccc5)n4)cc3)ccnc2cc1OCC[C@@H](N)C(=O)OC1CCCC1 [Example 107, (R)-2-Amino-4-{6-methoxy-4-[4-(5-phenyl-[1,2,4]oxadiazol-3-yl)-phenoxy]-quinolin-7-yloxy}-butyric acid cyclopentyl ester] | > 5 | > 5 | > 5
COc1cc2c(Oc3ccc4cccnc4c3)ccnc2cc1OCC[C@H](N)C(=O)OC1CCCC1 [Example 14, (S)-2-Amino-4-[6-methoxy-4-(quinolin-7-yloxy)-quinolin-7-yloxy]-butyric acid cyclopentyl ester] | < 1 | 1 to 5 | 1 to 5
COc1cc2c(Nc3ccc(NC(=O)c4ccccc4)cc3)c(Br)cnc2cc1OCC[C@H](N)C(=O)OC1CCCC1 [Example 33, Dihydrochloride] | 1 to 5 | > 5 | 1 to 5
COc1cc2c(Oc3ccc(NC(=O)c4ccccc4)cc3)ccnc2cc1OC[C@@H]1CCCN1CC[C@H](N)C(=O)OC1CCCC1 [Example 135, (S)-2-Amino-4-{(S)-2-[4-(4-benzoylamino-phenoxy)-6-methoxy-quinolin-7-yloxymethyl]-pyrrolidin-1-yl}-butyric acid cyclopentyl ester] | < 1 | 1 to 5 | 1 to 5
COc1cc2c(Oc3ccc(CC(=O)Nc4cccc(F)c4)cc3)ccnc2cc1OCC[C@H](N)C(=O)OC1CCCC1 [Example 84, (S)-2-Amino-4-(4-{4-[(3-fluoro-phenylcarbamoyl)-methyl]-phenoxy}-6-methoxy-quinolin-7-yloxy)-butyric acid cyclopentyl ester] | < 1 | < 1 | < 1
COc1cc2c(Oc3ccc(NS(=O)(=O)c4ccccc4)cc3)ccnc2cc1OCC[C@H](N)C(=O)OC1CCCC1 [Example 73, (S)-2-Amino-4-[4-(4-benzenesulfonylamino-phenoxy)-6-methoxy-quinolin-7-yloxy]-butyric acid cyclopentyl ester] | 1 to 5 | > 5 | 1 to 5
COc1cc2c(Oc3ccc(NC(=O)Nc4ccc(C(F)(F)F)cc4)cc3F)ccnc2cc1OCC[C@@H](N)C(=O)OC1CCCC1 [Example 108, (R)-2-Amino-4-(4-{2-fluoro-4-[3-(4-trifluoromethyl-phenyl)-ureido]-phenoxy}-6-methoxy-quinolin-7-yloxy)-butyric acid cyclopentyl ester] | < 1 | < 1 | < 1
COc1cc2c(Oc3ccc(CC(=O)Nc4ccc(F)cc4F)cc3)ccnc2cc1OCC[C@H](N)C(=O)OC1CCCC1 [Example 88, (S)-2-Amino-4-(4-{4-[(2,4-difluoro-phenylcarbamoyl)-methyl]-phenoxy}-6-methoxy-quinolin-7-yloxy)-butyric acid cyclopentyl ester] | < 1 | < 1 | < 1
COc1cc2c(Oc3ccc(NC(=O)c4ccccc4)cc3)ccnc2cc1OCC[C@H](N)C(=O)OC12CCC(CC1)C2 [Example 47, (S)-2-Amino-4-[4-(4-benzoylamino-phenoxy)-6-methoxy-quinolin-7-yloxy]-butyric acid bicyclo[2.2.1]hept-1-yl ester] | < 1 | < 1 | < 1

More lines, main results first:

IC50 (U937 cell line) [µM] | IC50 (HCT 116 cell line) [µM] | Structure (SMILES) | IC50 (HUT cell line) [µM]
< 1 | < 1 | COc1cc2c(Oc3ccc(CC(=O)Nc4ccccc4)cc3)ccnc2cc1OCC[C@H](N)C(=O)OC1CCCC1 [Example 80, (S)-2-Amino-4-[6-methoxy-4-(4-phenylcarbamoylmethyl-phenoxy)-quinolin-7-yloxy]-butyric acid cyclopentyl ester] | < 1
< 1 | < 1 | COc1cc2c(Oc3ccc(NC(=O)c4ccccc4)cc3)ccnc2cc1OCC[C@H](N)C(=O)OCc1ccccc1 [Example 52, (S)-2-Amino-4-[4-(4-benzoylamino-phenoxy)-6-methoxy-quinolin-7-yloxy]-butyric acid benzyl ester] | < 1
< 1 | < 1 | COc1cc2c(Oc3ccc(NC(=O)c4ccc(F)cc4F)cc3)ccnc2cc1OCC[C@H](N)C(=O)OC1CCCC1 [Example 65, (S)-2-Amino-4-{4-[4-(2,4-difluoro-benzoylamino)-phenoxy]-6-methoxy-quinolin-7-yloxy}-butyric acid cyclopentyl ester] | < 1
1 to 5 | > 5 | COc1cc2c(Nc3cnn(CC(=O)Nc4ccccc4)c3)ccnc2cc1OCC[C@H](N)C(=O)OC1CCCC1 [Example 22, (S)-2-Amino-4-[6-methoxy-4-(1-phenylcarbamoylmethyl-1H-pyrazol-4-ylamino)-quinolin-7-yloxy]-butyric acid cyclopentyl ester] | > 5
< 1 | < 1 | COc1cc2c(Oc3ccc(NC(=O)c4ccc(C(F)(F)F)cc4)cc3F)ccnc2cc1OCC[C@H](N)C(=O)OC1CCCC1 [Example 127, (S)-2-Amino-4-{4-[2-fluoro-4-(4-trifluoromethyl-benzoylamino)-phenoxy]-6-methoxy-quinolin-7-yloxy}-butyric acid cyclopentyl ester] | < 1
1 to 5 | 1 to 5 | COc1cc2c(Nc3cnc(NC(=O)c4ccccc4)nc3)ccnc2cc1OCC[C@H](N)C(=O)OC1CCCC1 [Example 25, (S)-2-Amino-4-[4-(2-benzoylamino-pyrimidin-5-ylamino)-6-methoxy-quinolin-7-yloxy]-butyric acid cyclopentyl ester] | 1 to 5
< 1 | < 1 | COc1cc2c(Oc3ccc(NC(=O)c4ccccc4)cn3)ccnc2cc1OCC[C@H](N)C(=O)OC1CCCC1 [Example 134] | < 1
< 1 | < 1 | COc1cc2c(Oc3ccc(NC(=O)c4ccc(C(F)(F)F)cc4)cc3F)ccnc2cc1OCC[C@@H](N)C(=O)OC1CCCC1 [Example 106, (R)-2-Amino-4-{4-[2-fluoro-4-(4-trifluoromethyl-benzoylamino)-phenoxy]-6-methoxy-quinolin-7-yloxy}-butyric acid cyclopentyl ester] | < 1
< 1 | < 1 | COc1cc2c(Oc3ccc(NC(=O)c4ccccc4)cc3)ccnc2cc1OCC[C@H](N)C(=O)OC1CCCC1C (stereo partly drawn) [Example 49, (S)-2-Amino-4-[4-(4-benzoylamino-phenoxy)-6-methoxy-quinolin-7-yloxy]-butyric acid 2-methyl-cyclopentyl ester] | < 1
< 1 | 1 to 5 | COc1cc2c(Oc3ccc(CC(=O)c4ccccc4)cc3)ccnc2cc1OCC[C@H](N)C(=O)OC1CCCC1 [Example 140, (S)-2-Amino-4-{6-methoxy-4-[4-(2-oxo-2-phenyl-ethyl)-phenoxy]-quinolin-7-yloxy}-butyric acid cyclopentyl ester] | < 1
< 1 | 1 to 5 | COc1cc2c(Oc3ccc(NC(=O)c4ccccc4)cc3)ccnc2cc1OCC[C@H](NCC(C)C)C(=O)OC1CCCC1 [Example 37, (S)-4-[4-(4-Benzoylamino-phenoxy)-6-methoxy-quinolin-7-yloxy]-2-isobutylamino-butyric acid cyclopentyl ester] | 1 to 5
< 1 | > 5 | COc1cc2c(Oc3ccc(NC(=O)c4ccccc4)cc3)ccnc2cc1OCC[C@H](NC(=O)c1cccs1)C(=O)OC1CCCC1 [Example 44, (S)-4-[4-(4-Benzoylamino-phenoxy)-6-methoxy-quinolin-7-yloxy]-2-[(thiophene-2-carbonyl)-amino]-butyric acid cyclopentyl ester] | 1 to 5
< 1 | 1 to 5 | COc1cc2c(Oc3ccc(NC(=O)c4ccccc4)cc3)ccnc2cc1OCC[C@H](NCc1ccccc1)C(=O)OC1CCCC1 [Example 40, (S)-4-[4-(4-Benzoylamino-phenoxy)-6-methoxy-quinolin-7-yloxy]-2-benzylamino-butyric acid cyclopentyl ester] | 1 to 5
1 to 5 | > 5 | COc1cc2c(Oc3ccccc3)ccnc2cc1OCC[C@H](N)C(=O)OC1CCCC1 [Example 7, (S)-2-Amino-4-(6-methoxy-4-phenoxy-quinolin-7-yloxy)-butyric acid cyclopentyl ester] | 1 to 5
< 1 | 1 to 5 | COc1cccc(CC(=O)N[C@@H](CCOc2cc3nccc(Oc4ccc(NC(=O)c5ccccc5)cc4)c3cc2OC)C(=O)OC2CCCC2)c1 [Example 45, (S)-4-[4-(4-Benzoylamino-phenoxy)-6-methoxy-quinolin-7-yloxy]-2-[2-(3-methoxy-phenyl)-acetylamino]-butyric acid cyclopentyl ester] | < 1
